B1: IL-10: phagocytic suppressive cytokine (protein, UniProt P22301 19-178, looked up)
Interleukin-10: SPGQGTQSENSCTHFPGNLPNMLRDLRDAFSRVKTFFQMKDQLDNLLLKESLLEDFKGYLGCQALSEMIQFYLEEVMPQAENQDPDIKAHVNSLGENLKTLRLRLRRCHRFLPCENKSKAVEQVKNAFNKLQEKGIYKAMSEFDIFINYIEAYMTMKIRN

Experiments:
[1] = system: SIRPα^−/− and CD47^−/− mice; experiment: Acute anemia and splenomegaly in mice deficient of CD47-SIRPα-mediated inhibition under inflammatory conditions; type: in vivo, mouse; conditions: colitic SIRPα^−/− mice; 1% DSS, 10 days
Description: FIGS. 1A-1K illustrate our assessment of acute anemia in mice deficient of CD47-SIRPα-mediated inhibition under inflammatory conditions. FIG. 1A includes a schematic drawing of a wild type (WT) and targeted allele of SIRPα (“SIRPα”) and data related to the generation of SIRPα “knock out” (KO) mice. […] Western blot (WB) analysis confirmed the depletion of SIRPα (˜120 kDa) protein in bone marrow leukocytes from SIRPα^−/− mice. FIG. 1B includes a photograph of intestinal tissue and a line graph charting the change in body weight of mice in which colitis had been induced by treatment with 1% or 2% DSS. […] FIGS. 1C and 1D include data related to acute anemia and splenomegaly developed in SIRPα^−/− mice with colitis. WT mice and SIRPα^−/− mice treated with DSS (2% DSS for WT and 1% DSS for SIRPα^−/−) for 10 days were analyzed for the presence of […] (FIG. 1C) and the content of hemoglobin in peripheral blood (FIG. 1D). FIG. 1E includes a panel of photomicrographs in which hematoxylin and eosin (H&E) was used to stain sections of spleens from WT and SIRPα^−/− mice treated with 2% and 1% DSS for 10 days. The bar graph of FIG. 1E illustrates the hemoglobin content in the spleens of WT and SIRPα^−/− mice treated with water or DSS. FIG. 1F is a pair of line graphs showing the time course over which anemia developed in SIRPα^−/− mice when colitis was induced with DSS and the levels of IL-17 in the serum over that same period of time. FIG. 1G is a diagram showing that IL-17 neutralization ameliorates anemia and splenomegaly in SIRPα^−/− mice with colitis. An anti-IL-17 antibody (10 μg, i.v.) was given on days 6 and 8 (arrows) during DSS-induction of colitis. FIG. 1H is a diagram showing that IL-17-containing colitic serum induces acute anemia in SIRPα^−/− mice. Serum samples collected from healthy (Ctl.) and colitic WT mice (2% DSS, 10 d) were administered to healthy SIRPα^−/− mice (i.v., 3×, arrows) with or without an anti-IL-17 antibody. FIGS. 1I and 1J are illustrative graphs showing that IL-17 directly induces acute anemia and splenomegaly in SIRPα^−/− mice and Cd47^−/− mice. Healthy mice were given recombinant IL-17 (10 μg/kg, i.v.) on days 1 and 3 (arrows, FIG. 1J); anemia and splenomegaly were analyzed on day 5 (FIG. 1I) or in a time course manner (FIG. 1J). FIG. 1K includes diagrams showing that acute anemia and splenomegaly in SIRPα^−/− and Cd47^−/− mice under zymosan-peritonitis (3×, every other day), IL-6 administration ([…], i.v.), LPS (0.25 mg/kg, i.p.), and CFA (1×, s.c.) administrations. Error bars are ±SEM **P<0.01, ***P<0.001 vs. control or the beginning time point. Data presented in each panel represent at least three independent experiments with n≥4, if applicable.
Hemoglobin assay: To assay blood hemoglobin, 10 μl of whole blood were obtained from the tail vein followed by lysis in 1 ml distilled water. After centrifugation (13,000 rpm, 30 min), the hemoglobin-containing supernatants were collected and measured for the optical density at the wavelength of 540 nm.
Animal inflammation models: To induce peritonitis, mice (6-8 wk, 20-22 g) were intraperitoneally injected with 0.5 mg zymosan A (Sigma) in 0.5 ml sterile PBS followed by euthanasia at 2, 4, 6 and 8 hours. […] The colitic condition was then assessed by observing diarrhea, measuring body weight loss, increases of inflammatory cytokines, the shortage of the large intestine and intestinal tissue analyses (after euthanasia). […]

[2] = system: CFSE-labeled CD47^+ or CD47^− RBCs in recipient mice; experiment: RBC adoptive transfer and in vivo clearance of CFSE-labeled RBCs; parameters: species or system mouse; conditions: SIRPα^−/− mice; 1% DSS for 8 d or directly injected with IL-17; 24 h
Description: FIGS. 2A-2E includes data related to macrophage phagocytosis in vivo assessed by adoptive transfer experiments. FIGS. 2A-C are illustrative graphs showing clearance of adoptively transferred CD47-positive (Cd47^+) or CD47-negative (Cd47^−) RBC in recipient mice. […] Error bars are ±SEM. **P<0.01, ***P<0.001 vs. WT mice clearance of Cd47^+ RBCs. […] Mice treated with DSS (1% for SIRPα^−/− mice, 2% for WT and Cd47^−/− mice) for 8 d (d8) were transfused with CFSE-RBCs followed by determination of RBC clearance after 24 h. FACS data of Cd47^+ RBCs and Cd47^− RBCs in different mice at 30 min and 24 h after transfer were selectively shown. Total RBC phagocytosis was calculated based on the rates of CFSE-RBC clearance and the fact that SIRPα^−/− mice eliminate both Cd47^− RBC and Cd47^+ RBC, whereas WT mice and Cd47^−/− mice eliminate only Cd47^− RBCs. […] Mice treated once with IL-17 (10 μg/kg, i.v.) were transfused with CFSE-labeled Cd47^+ or Cd47^− RBCs a day later. Error bars are ±SEM. **P<0.01, ***P<0.001 vs. control or the initial time point. Data presented in each panel represent at least three independent experiments with n≥4, if applicable.
Adoptive transfer and in vivo clearance: CD47-expressing (CD47^+) RBC freshly collected from WT or SIRPα^−/− mice, and CD47-null (CD47^−) RBC collected from CD47^−/− mice were labeled with carboxyfluorescein succinimidyl ester (CFSE). After washing, about 1×10^9 RBC suspended in 200 μl sterile PBS were transfused into recipient mice by intravenous (i.v.) injection. Blood samples (5 μl) were then collected 30 min after the blood transfusion and the CFSE-labeled RBC in the circulation was assessed by FACS analyses. Blood samples (5 μl each) were then collected at later time points to assess the clearance of CFSE-labeled RBC as compared to that found at 30 min. For each sample, at least 50,000 RBC were examined by FACS. […] Clearance of CFSE-labeled cells in the circulation and the spleen were analyzed by FACS analyses of blood samples and splenocytes. […]

[3] = system: splenic macrophages, PEMs and BMDMs; experiment: Ex vivo macrophage phagocytosis toward RBCs and other self-cells after activation; type: cell-based, mouse; conditions: various concentrations of IL-10
Method: FIGS. 3A-3H include data related to our experiments assaying macrophage phagocytosis ex vivo. FIGS. 3A and 3B show macrophage phagocytosis of RBCs. Freshly isolated splenic macrophages (MØ) and peritoneal macrophages (PEM) and in vitro-derived BMDM (bone marrow-derived macrophages) were tested for phagocytosis toward CFSE-labeled Cd47^+ or Cd47^− RBCs. […] FIGS. 3F and 3G illustrate LPS and IL-17-activated PEM phagocytosis toward splenocytes (FIG. 3F), B16, and EL4 (FIG. 3G). Error bars are ±SEM. **P<0.01, ***P<0.001 vs. no treatment controls. […] PEM lavaged without (ctl.) or with Brewer thioglycollate (3%, i.p.) elicitation was tested. Error bars are ±SEM. ***P<0.001 vs. control PEM. Data presented in each panel represent at least three independent experiments with n≥4, if applicable.
FIGS. 4A-4E include data related to our experiments on macrophage phagocytic plasticity. FIG. 4A is a panel of illustrative line graphs showing that IL-10 inhibits macrophage phagocytosis toward “self.” PEMs were treated with LPS and activating cytokines along with various concentrations of IL-10 before testing their ability to phagocytose RBCs. FIG. 4B illustrates the phagocytic plasticity of WT red pulp macrophages. […] Treatments of cultured macrophages with LPS and IL-17 re-elicited their phagocytosis toward RBCs. […] Error bars are ±SEM. ***P<0.001 vs. freshly isolated splenic macrophages. FIG. 4D includes microscopic images of RBC phagocytosis by LPS- and IL-17-treated splenic macrophages. […] WT PEMs treated with LPS or IL-17 were further treated with Cd47^+ RBCs or Cd47-AP (10 min, 37° C.) followed by cell lysis, SIRPα immunoprecipitation, and WB detection of SIRPα phosphorylation (SIRPα^pY) and SHP-1 association. Data presented in each panel represent at least three independent experiments with n≥4, if applicable.
Ex vivo macrophage phagocytosis: Mouse spleens were harvested and minced in cold HBSS followed by passing through nylon meshes. The spleen cells in suspensions were collected by centrifugation followed by washing. After lysis of RBC, splenocytes were plated in cell culture dishes in DMEM with 10% FBS and cultured for 2 h followed by removal of non-adherent cells. The adherent cells, ˜70% being macrophages as determined by anti-F4/80 staining, were tested for phagocytosis. For phagocytosis of RBC or other tissue cells, targeted cells were labeled with CFSE prior to addition into the macrophage-containing wells. Macrophages and target cells, at a ratio of 1:5-10 for RBC or 1:1-2 for other cells, were co-incubated for 30 min at 37° C. followed by gently washing. Macrophage phagocytosis of target cells was then analyzed by fluorescence microscopy and/or by FACS. To better recognize macrophages, macrophages in wells were labeled with an anti-F4/80 or an anti-CD11b antibody. Alternatively, the freshly isolated splenocytes in suspension were incubated with CFSE-labeled RBC and other phagocytic targets for 30 min at 37° C. Macrophage phagocytosis was then determined by FACS after labeling macrophages with anti-F4/80. To test phagocytosis of apoptotic cells, B16 cells were irradiated by UV for 150 seconds at 50 J/m^2 strength. Apoptosis was analyzed at 2, 4, 6, 8 and 18 h post UV irradiation by labeling of the cells with anti-phosphatidylserine (PS) antibody (data not shown) or FITC-conjugated annexin V (data not shown). Cells that were confirmed to be apoptotic were trypsinized, labeled with CFSE, and then co-incubated with macrophages for 30 min at 37° C. After gentle washing, phagocytosis was analyzed by fluorescence microscopy and/or FACS. To test phagocytosis of bacteria and the fungal product zymosan, AlexaFluor-conjugated E.coli strain […] (2 μl suspension, ˜2 μg) or zymosan bioparticles (1 μl suspension, ˜2 μg) (both from Invitrogen) were incubated with macrophages for 30 min followed by washing and analyses. Similar procedures were performed to test phagocytosis of macrophages from various sources. […]

Syk = Syk phosphorylation at Y519/520 in PEMs; type: cell-based, mouse
Method: FIGS. 5A-5H include data related to our experiments on the role of Syk in phagocytic activation. […] PEMs were treated with LPS and cytokines in the presence of various inhibitors. After washing, inhibitor-free macrophages were tested for phagocytosis toward RBCs. […] PEMs treated with LPS and activating cytokines, or together with IL-10, were tested for total Syk and phosphorylated Syk (Syk^pY, specific at Y519/520). FIG. 5D describes PMA-induced macrophages phagocytosis toward RBCs. WT and SIRPα^−/− PEMs were treated with PMA (37° C., 30 min) before testing phagocytosis toward RBCs. FIG. 5E is a schematic depiction of PKC-Syk-mediated macrophage phagocytic activation toward self. […] Left: Inhibition of Syk by piceatannol and R406 prevented PMA-induced phagocytic activation. […] Error bars are ±SEM. ***P<0.001 vs. the respective controls. […] LPS-treated WT PEMs were further briefly treated with pervanadate before testing for phagocytosis toward RBCs. Error bars are ±SEM. ***P<0.001 vs. the respective controls. […] Data presented in each panel represent at least three independent experiments with n≥4, if applicable.
Multiple pharmacological inhibitors were tested for their effects on LPS and cytokine-induced activation of macrophage phagocytosis toward self. […] For example, inhibition of JAKs blocked IL-6 and IL-17, but not LPS and TNFα, for activation of PEM phagocytosis. […]

Row | Molecule | peripheral hemoglobin reduction [1] | clearance of transferred CD47^+ and CD47^− RBCs [2] [%] | LPS-, IL-17-, IL-6-, TNFα-, and IL-1β-induced activation of PEM phagocytosis toward RBCs [3] | Syk phosphorylation (Syk^PY, Y519/520) (Syk)
1 | dextran sodium sulfate [DSS] | 40-50 | ~50 | – | –
2 | B1 | – | – | dose-dependently inhibited | counter-repressed Syk phosphorylation
